Reference: patent US6528295B2, “Protein phosphatase methylesterase” (priority 1998, dated 2003)
“Also recorded” adds a separate entry of the source. *1 amine or outer side, *2 acyl side, *3 side chain or, on linkers, in order; H or OH if unused. Where a SMILES comes first, the peptide text is derived from it. Bridges are numbered along the chain shown (N, C = ends). [ ]: non-standard residue; d: D form. Adda = CO[C@@H](Cc1ccccc1)[C@@H](C)/C=C(C)/C=C/[C@H](N[*:1])[C@H](C)C(=O)[*:2]; dAsp(3S-Me) = C[C@H](C(=O)[*:3])[C@@H](N[*:1])C(=O)[*:2]; d(γGlu) = O=C(O)[C@@H](CCC(=O)[*:2])N[*:1]; NMeDha = C=C(NC)C(=O)O

Key:
human PME-1 [1] = target: human PME-1 (Homo sapiens, UniProt Q9Y570); assay type: biochemical
Sequence of human PME-1 (Homo sapiens, UniProt Q9Y570) (Q9Y570 2-386): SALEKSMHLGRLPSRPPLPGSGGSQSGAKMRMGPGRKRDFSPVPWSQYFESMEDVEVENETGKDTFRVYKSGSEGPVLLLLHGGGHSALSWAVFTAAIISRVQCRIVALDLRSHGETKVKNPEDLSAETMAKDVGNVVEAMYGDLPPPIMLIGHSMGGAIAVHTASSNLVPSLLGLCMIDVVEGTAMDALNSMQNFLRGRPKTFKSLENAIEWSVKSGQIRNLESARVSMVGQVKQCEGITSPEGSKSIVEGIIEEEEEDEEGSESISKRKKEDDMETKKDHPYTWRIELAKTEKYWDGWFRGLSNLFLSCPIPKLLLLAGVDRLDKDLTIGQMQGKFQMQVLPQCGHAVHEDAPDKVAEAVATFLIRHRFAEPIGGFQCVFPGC

PP2A methyltransferase = conditions: cited from earlier work
H59Q/PME-1 complex = target: T1, H59Q/PME-1 complex (Homo sapiens, UniProt P67775, H59Q); assay type: binding, mouse
T1 construct: expressed in transfected cells; host or cells: NIH3T3 (A3); MT-transformed NIH3T3 (A8); PME-1 is endogenous
T1 sequence (P67775 whole entry H59Q): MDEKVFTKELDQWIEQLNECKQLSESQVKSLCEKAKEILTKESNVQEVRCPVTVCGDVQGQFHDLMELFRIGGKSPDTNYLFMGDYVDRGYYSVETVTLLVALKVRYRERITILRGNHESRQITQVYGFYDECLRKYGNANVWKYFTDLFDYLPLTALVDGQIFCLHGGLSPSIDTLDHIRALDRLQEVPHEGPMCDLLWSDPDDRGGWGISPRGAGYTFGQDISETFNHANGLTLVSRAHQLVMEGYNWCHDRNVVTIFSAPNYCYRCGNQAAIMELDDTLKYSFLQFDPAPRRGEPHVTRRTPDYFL
T1 sequence (Q76MZ3 whole entry partner): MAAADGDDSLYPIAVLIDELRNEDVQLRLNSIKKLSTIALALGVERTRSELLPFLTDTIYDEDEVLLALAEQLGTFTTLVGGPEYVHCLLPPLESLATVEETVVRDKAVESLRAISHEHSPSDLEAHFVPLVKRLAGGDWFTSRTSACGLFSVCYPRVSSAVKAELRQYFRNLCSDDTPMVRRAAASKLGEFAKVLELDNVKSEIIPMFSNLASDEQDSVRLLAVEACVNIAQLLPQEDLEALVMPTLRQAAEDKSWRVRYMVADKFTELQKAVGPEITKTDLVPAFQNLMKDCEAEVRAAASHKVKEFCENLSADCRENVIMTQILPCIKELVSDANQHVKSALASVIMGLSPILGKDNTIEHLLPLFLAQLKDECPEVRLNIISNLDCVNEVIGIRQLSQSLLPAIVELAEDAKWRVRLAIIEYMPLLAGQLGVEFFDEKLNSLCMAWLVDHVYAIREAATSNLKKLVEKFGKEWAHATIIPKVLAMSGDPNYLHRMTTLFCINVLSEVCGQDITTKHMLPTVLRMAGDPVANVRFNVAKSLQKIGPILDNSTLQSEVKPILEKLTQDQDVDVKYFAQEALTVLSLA

human PME-1 [2] = assay type: biochemical
PP2A = PP2A (Homo sapiens, UniProt P67775); assay type: biochemical
Sequence of PP2A (P67775 whole entry): as the sequence (P67775 whole entry H59Q) above, with Q59H counted along it

[3] = test system: 46 kDa PP2A methylesterase; conditions: cited from earlier work
PME-1 = target: T2, PME-1 (Mus musculus, UniProt Q8BVQ5); assay: Immunoprecipitation assay of PME-1 binding to H59Q/301Stop versus H59Q; conditions: all seven experiments
T2 construct: endogenous in cells; host or cells: MT-transformed NIH3T3 cells (C subunit mutants stably transfected)
T2 sequence (Q8BVQ5 1-386): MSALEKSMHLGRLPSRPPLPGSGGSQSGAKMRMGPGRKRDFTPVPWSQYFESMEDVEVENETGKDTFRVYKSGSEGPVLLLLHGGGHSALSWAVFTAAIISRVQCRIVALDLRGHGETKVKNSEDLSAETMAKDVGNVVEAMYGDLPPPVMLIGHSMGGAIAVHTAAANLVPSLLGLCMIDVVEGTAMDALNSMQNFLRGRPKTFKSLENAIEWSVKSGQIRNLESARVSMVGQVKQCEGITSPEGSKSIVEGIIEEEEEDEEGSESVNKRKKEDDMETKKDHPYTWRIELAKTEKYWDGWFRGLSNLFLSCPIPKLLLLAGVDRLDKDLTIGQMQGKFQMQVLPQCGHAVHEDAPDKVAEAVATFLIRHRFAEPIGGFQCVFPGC

[4] = test system: phosphorylase a and cdc2-phosphorylated histone H1; assay: Phosphatase activity in anti-HA tag immunoprecipitates of wt and mutant C subunits; assay type: biochemical; conditions: normalized to wt, four independent experiments

O=S(=O)(F)Cc1ccccc1 [PMSF, phenylmethylsulfonyl fluoride]
methylesterase activity of bacterially expressed PME-1 (human PME-1 [1]): not

C=C1C(=O)N[C@H](C)C(=O)N[C@@H](CC(C)C)C(=O)N[C@@H](C(=O)O)[C@H](C)C(=O)N[C@@H](CCCNC(=N)N)C(=O)N[C@@H](/C=C/C(C)=C/[C@H](C)[C@H](Cc2ccccc2)OC)[C@H](C)C(=O)N[C@@H](C(=O)O)CCC(=O)N1C [microcystin-LR] (R[Adda][d(γGlu)][NMeDha][dA]L[dAsp(3S-Me)]-OH; lactam N-7)
inhibition of the PP2A methyltransferase (PP2A methyltransferase): inhibited

C=C1[C@@H](O)[C@@H]2O[C@]3(CC[C@H](/C=C/[C@@H](C)[C@@H]4CC(C)=C[C@@]5(O[C@H](C[C@@](C)(O)C(=O)O)CC[C@H]5O)O4)O3)CC[C@H]2O[C@@H]1[C@@H](O)C[C@H](C)[C@H]1O[C@@]2(CCCCO2)CC[C@H]1C [okadaic acid]
amount of PME-1 bound to (complexed with) H59Q C subunit (H59Q/PME-1 complex): reduce; also recorded: decreased | methylesterase activity of bacterially expressed PME-1 (human PME-1 [2]): inhibited | inhibition of PP2A (PP2A): 97±4% | inhibition of the 46 kDa PP2A methylesterase [3]: inhibited | inhibition of the PP2A methyltransferase (PP2A methyltransferase): inhibited

[F-].[Na+] [sodium fluoride]
amount of PME-1 bound to (complexed with) H59Q C subunit (H59Q/PME-1 complex): reduce; also recorded: decreased | inhibition of PP2A (PP2A): 91±10%

H59Q/301Stop: double mutant combining H59Q with deletion of the nine C subunit carboxy-terminal amino acids 301-309
overall mean reduction of PME-1 bound relative to H59Q (PME-1): 28%

sodium vanadate
amount of PME-1 bound to (complexed with) H59Q C subunit (H59Q/PME-1 complex): not | inhibition of PP2A (PP2A): 25±18%

wt: HA-tagged wild-type PP2A C subunit
C subunit-associated phosphatase activity, cdc2-phosphorylated Histone H1 (Mean ± s.d.) ([4]; substrate cdc2-phosphorylated histone H1): 100 % wt | C subunit-associated phosphatase activity, phosphorylase a (Means ± s.d.) ([4]; substrate phosphorylase a): 100 % wt
